From ChEMBL document CHEMBL4304811, “Development of a Water-Soluble Indolylmaleimide Derivative IM-93 Showing Dual Inhibition of Ferroptosis and NETosis” (ACS Med Chem Lett, 2019)

Tests used:
[1] = tested on: Tyrosine-protein kinase ABL1 (Homo sapiens), P00519 [T315I]; assay: Binding affinity to human non-phosphorylated ABL1 T315I mutant (S229 to K512 residues) expressed in mammalian expression system assessed as residual binding level at 10 uM by Kinomescan method relative to control
[2] = target: Activin receptor type-1 (Homo sapiens) (UniProt Q04771); assay: Binding affinity to wild-type human ACVR1 (C188 to C509 residues) expressed in bacterial expression system assessed as residual binding level at 10 uM by Kinomescan method relative to control
[3] = target: Cytoplasmic tyrosine-protein kinase BMX (Homo sapiens) (UniProt P51813); assay: Binding affinity to wild-type human full length BMX (M1 to H675 residues) expressed in bacterial expression system assessed as residual binding level at 10 uM by Kinomescan method relative to control
[4] = target: Cyclin-dependent kinase 8 (Homo sapiens) (UniProt P49336); assay: Binding affinity to wild-type human partial length CDK8 (M1 to T360 residues) expressed in bacterial expression system assessed as residual binding level at 10 uM by Kinomescan method relative to control
[5] = target: Casein kinase I isoform gamma-3 (Homo sapiens) (UniProt Q9Y6M4); assay: Binding affinity to wild-type human full length CSNK1G3 (M1 to K447 residues) expressed in bacterial expression system assessed as residual binding level at 10 uM by Kinomescan method relative to control
[6] = tested on: Epidermal growth factor receptor (Homo sapiens), P00533 [UNDEFINED MUTATION]; assay: Binding affinity to human partial length EGFR S752-I759del mutant expressed in bacterial expression system assessed as residual binding level at 10 uM by Kinomescan method relative to control
[7] = target: Ephrin type-A receptor 1 (Homo sapiens) (UniProt P21709); assay: Binding affinity to wild-type human partial length EPHA1 (V588 to I913 residues) expressed in bacterial expression system assessed as residual binding level at 10 uM by Kinomescan method relative to control
[8] = target: Ephrin type-A receptor 3 (Homo sapiens) (UniProt P29320); assay: Binding affinity to wild-type human partial length EPHA3 (D604 to K889 residues) expressed in bacterial expression system assessed as residual binding level at 10 uM by Kinomescan method relative to control
[9] = target: Mitogen-activated protein kinase 1 (Homo sapiens) (UniProt P28482); assay: Binding affinity to wild-type human full length ERK2 (M1 to S360 residues) expressed in bacterial expression system assessed as residual binding level at 10 uM by Kinomescan method relative to control
[10] = target: Receptor-type tyrosine-protein kinase FLT3 (Homo sapiens) (UniProt P36888); assay: Binding affinity to wild-type human partial length autoinhibited FLT3 (H564 to Y969 residues) expressed in mammalian expression system assessed as residual binding level at 10 uM by Kinomescan method relative to control
[11] = target: Homeodomain-interacting protein kinase 1 (Homo sapiens) (UniProt Q86Z02); assay: Binding affinity to wild-type human partial length HIPK1 (M146 to I555 residues) expressed in mammalian expression system assessed as residual binding level at 10 uM by Kinomescan method relative to control
[12] = target: Insulin receptor (Homo sapiens) (UniProt P06213); assay: Binding affinity to wild-type human partial length INSR (P997 to E1318 residues) expressed in mammalian expression system assessed as residual binding level at 10 uM by Kinomescan method relative to control
[13] = target: Mast/stem cell growth factor receptor Kit (Homo sapiens) (UniProt P10721); assay: Binding affinity to wild-type human partial length KIT (I571 to D952 residues) expressed in bacterial expression system assessed as residual binding level at 10 uM by Kinomescan method relative to control
[14] = target: Leukocyte tyrosine kinase receptor (Homo sapiens) (UniProt P29376); assay: Binding affinity to wild-type human partial length LTK (P422 to S744 residues) expressed in bacterial expression system assessed as residual binding level at 10 uM by Kinomescan method relative to control
[15] = target: Mitogen-activated protein kinase kinase kinase kinase 3 (Homo sapiens) (UniProt Q8IVH8); assay: Binding affinity to wild-type human partial length MAP4K3 (M1 to D301 residues) expressed in bacterial expression system assessed as residual binding level at 10 uM by Kinomescan method relative to control
[16] = target: Serine/threonine-protein kinase Nek9 (Homo sapiens) (UniProt Q8TD19); assay: Binding affinity to wild-type human partial length NEK9 (P32 to R328 residues) expressed in bacterial expression system assessed as residual binding level at 10 uM by Kinomescan method relative to control
[17] = target: Serine/threonine-protein kinase PAK 3 (Homo sapiens) (UniProt O75914); assay: Binding affinity to wild-type human full length PAK3 (M1 to R544 residues) expressed in bacterial expression system assessed as residual binding level at 10 uM by Kinomescan method relative to control
[18] = target: Serine/threonine-protein kinase PAK 6 (Homo sapiens) (UniProt Q9NQU5); assay: Binding affinity to wild-type human partial length PAK6 (N298 to C681 residues) expressed in bacterial expression system assessed as residual binding level at 10 uM by Kinomescan method relative to control
[19] = target: Cyclin-dependent kinase 16 (Homo sapiens) (UniProt Q00536); assay: Binding affinity to wild-type human partial length PCTK1 (G160 to A474 residues) expressed in mammalian expression system assessed as residual binding level at 10 uM by Kinomescan method relative to control
[20] = target: cGMP-dependent protein kinase 1 (Homo sapiens) (UniProt Q13976); assay: Binding affinity to wild-type human partial length PRKG1 (L339 to F686 residues) expressed in bacterial expression system assessed as residual binding level at 10 uM by Kinomescan method relative to control
[21] = target: Receptor-interacting serine/threonine-protein kinase 1 (Homo sapiens) (UniProt Q13546); assay: Binding affinity to wild-type human partial length RIPK1 (M1 to K305 residues) expressed in bacterial expression system assessed as residual binding level at 10 uM by Kinomescan method relative to control
[22] = target: NT-3 growth factor receptor (Homo sapiens) (UniProt Q16288); assay: Binding affinity to wild-type human partial length TRKC (Q531 to G825 residues) expressed in mammalian expression system assessed as residual binding level at 10 uM by Kinomescan method relative to control
[23] = target: Serine/threonine-protein kinase ULK2 (Homo sapiens) (UniProt Q8IYT8); assay: Binding affinity to wild-type human partial length ULK2 (M1 to S301 residues) expressed in mammalian expression system assessed as residual binding level at 10 uM by Kinomescan method relative to control
[24] = target: Serine/threonine-protein kinase 32C (Homo sapiens) (UniProt Q86UX6); assay: Binding affinity to wild-type human partial length YANK3 (M68 to G486 residues) expressed in bacterial expression system assessed as residual binding level at 10 uM by Kinomescan method relative to control
[25] = target: Mitogen-activated protein kinase kinase kinase 20 (Homo sapiens) (UniProt Q9NYL2); assay: Binding affinity to wild-type human partial length ZAK (M1 to L331 residues) expressed in bacterial expression system assessed as residual binding level at 10 uM by Kinomescan method relative to control
Mitogen-activated protein kinase kinase kinase 20 (Homo sapiens), sequence (Q9NYL2 2-800 limits assumed): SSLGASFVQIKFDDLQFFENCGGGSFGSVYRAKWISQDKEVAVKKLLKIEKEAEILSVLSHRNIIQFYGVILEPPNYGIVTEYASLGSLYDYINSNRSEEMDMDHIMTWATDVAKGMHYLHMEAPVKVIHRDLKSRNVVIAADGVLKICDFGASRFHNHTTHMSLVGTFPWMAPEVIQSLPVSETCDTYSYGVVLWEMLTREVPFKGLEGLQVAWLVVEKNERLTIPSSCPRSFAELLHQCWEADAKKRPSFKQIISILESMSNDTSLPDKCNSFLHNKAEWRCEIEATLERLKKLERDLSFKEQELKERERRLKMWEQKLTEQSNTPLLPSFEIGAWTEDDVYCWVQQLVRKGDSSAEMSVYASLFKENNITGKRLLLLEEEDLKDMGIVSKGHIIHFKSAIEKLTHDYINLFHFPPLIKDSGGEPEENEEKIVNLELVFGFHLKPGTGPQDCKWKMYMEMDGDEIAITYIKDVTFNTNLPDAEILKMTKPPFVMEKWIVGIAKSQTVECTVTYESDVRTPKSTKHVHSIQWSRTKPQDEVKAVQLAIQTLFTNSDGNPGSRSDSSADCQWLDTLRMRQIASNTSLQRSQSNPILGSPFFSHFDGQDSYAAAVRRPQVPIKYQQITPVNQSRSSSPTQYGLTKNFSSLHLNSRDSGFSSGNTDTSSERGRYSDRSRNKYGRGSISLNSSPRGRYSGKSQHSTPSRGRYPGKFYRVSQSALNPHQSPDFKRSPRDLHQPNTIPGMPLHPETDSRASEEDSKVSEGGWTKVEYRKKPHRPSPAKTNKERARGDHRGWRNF

Mitogen-activated protein kinase kinase kinase kinase 3 (Homo sapiens), sequence (Q8IVH8 whole entry, the tested form may be a part): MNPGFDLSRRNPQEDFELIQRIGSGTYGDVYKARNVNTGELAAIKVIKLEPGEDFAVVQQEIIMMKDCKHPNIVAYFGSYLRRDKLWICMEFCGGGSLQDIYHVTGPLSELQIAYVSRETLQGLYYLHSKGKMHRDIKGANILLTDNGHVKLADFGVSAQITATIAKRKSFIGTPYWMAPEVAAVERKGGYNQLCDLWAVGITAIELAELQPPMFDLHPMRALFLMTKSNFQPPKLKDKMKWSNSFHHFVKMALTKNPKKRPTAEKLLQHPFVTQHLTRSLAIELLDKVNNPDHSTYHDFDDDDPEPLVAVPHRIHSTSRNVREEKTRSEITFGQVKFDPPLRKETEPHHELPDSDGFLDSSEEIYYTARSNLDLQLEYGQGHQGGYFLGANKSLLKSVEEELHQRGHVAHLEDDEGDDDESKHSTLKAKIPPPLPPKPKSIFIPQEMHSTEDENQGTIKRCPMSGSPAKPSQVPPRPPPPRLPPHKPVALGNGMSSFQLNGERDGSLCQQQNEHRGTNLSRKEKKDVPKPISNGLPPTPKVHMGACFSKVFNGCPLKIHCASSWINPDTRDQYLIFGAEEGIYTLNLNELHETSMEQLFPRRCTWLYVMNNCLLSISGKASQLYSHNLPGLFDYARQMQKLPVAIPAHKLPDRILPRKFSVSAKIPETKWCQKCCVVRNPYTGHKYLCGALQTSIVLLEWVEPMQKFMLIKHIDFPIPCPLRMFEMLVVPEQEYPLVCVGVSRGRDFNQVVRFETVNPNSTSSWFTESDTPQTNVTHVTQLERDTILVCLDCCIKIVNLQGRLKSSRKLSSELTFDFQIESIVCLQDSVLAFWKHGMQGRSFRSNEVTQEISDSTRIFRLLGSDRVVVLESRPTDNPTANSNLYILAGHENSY
Serine/threonine-protein kinase Nek9 (Homo sapiens), sequence (Q8TD19 whole entry, the tested form may be a part): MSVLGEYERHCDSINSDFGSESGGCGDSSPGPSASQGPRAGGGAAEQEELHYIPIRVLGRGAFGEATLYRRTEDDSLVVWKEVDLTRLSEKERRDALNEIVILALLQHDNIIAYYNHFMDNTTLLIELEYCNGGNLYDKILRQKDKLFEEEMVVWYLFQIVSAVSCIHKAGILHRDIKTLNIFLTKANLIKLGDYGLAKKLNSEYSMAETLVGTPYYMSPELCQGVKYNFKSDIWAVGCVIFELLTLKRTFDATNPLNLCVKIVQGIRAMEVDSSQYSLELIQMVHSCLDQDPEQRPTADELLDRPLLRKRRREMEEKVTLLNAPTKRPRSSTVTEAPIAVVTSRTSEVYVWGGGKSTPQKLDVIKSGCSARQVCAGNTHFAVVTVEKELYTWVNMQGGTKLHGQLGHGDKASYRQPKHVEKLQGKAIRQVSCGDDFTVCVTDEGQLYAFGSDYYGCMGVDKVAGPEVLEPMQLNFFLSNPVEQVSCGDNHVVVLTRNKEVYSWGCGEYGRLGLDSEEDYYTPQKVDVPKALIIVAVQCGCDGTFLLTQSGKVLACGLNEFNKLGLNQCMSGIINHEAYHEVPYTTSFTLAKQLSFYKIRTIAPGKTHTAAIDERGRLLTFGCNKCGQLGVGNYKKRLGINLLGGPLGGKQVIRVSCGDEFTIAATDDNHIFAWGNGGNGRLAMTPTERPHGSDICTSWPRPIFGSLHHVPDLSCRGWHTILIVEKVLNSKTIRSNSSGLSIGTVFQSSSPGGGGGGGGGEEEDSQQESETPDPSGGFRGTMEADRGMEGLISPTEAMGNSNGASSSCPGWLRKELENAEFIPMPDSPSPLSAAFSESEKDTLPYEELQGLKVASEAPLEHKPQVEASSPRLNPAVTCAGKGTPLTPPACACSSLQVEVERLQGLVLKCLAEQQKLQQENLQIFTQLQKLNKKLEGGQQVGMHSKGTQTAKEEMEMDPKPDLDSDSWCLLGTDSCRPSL
Serine/threonine-protein kinase PAK 3 (Homo sapiens), sequence (O75914 whole entry, looked up, the tested form may be a part): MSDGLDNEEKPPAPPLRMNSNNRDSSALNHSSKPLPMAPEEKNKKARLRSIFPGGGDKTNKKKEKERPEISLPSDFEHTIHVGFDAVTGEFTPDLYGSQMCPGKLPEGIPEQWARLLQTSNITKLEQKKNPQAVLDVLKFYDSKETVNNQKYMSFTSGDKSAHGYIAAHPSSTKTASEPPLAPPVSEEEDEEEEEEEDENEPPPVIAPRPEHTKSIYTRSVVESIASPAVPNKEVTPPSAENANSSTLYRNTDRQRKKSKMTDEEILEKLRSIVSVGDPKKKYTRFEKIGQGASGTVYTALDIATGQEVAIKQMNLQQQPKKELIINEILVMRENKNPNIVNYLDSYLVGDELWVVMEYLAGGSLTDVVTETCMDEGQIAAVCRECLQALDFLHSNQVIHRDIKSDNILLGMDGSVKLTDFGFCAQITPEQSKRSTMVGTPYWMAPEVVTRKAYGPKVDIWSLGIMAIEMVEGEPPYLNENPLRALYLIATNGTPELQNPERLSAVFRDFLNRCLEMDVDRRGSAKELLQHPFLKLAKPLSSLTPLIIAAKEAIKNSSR
Cyclin-dependent kinase 16 (Homo sapiens), sequence (Q00536 whole entry, the tested form may be a part): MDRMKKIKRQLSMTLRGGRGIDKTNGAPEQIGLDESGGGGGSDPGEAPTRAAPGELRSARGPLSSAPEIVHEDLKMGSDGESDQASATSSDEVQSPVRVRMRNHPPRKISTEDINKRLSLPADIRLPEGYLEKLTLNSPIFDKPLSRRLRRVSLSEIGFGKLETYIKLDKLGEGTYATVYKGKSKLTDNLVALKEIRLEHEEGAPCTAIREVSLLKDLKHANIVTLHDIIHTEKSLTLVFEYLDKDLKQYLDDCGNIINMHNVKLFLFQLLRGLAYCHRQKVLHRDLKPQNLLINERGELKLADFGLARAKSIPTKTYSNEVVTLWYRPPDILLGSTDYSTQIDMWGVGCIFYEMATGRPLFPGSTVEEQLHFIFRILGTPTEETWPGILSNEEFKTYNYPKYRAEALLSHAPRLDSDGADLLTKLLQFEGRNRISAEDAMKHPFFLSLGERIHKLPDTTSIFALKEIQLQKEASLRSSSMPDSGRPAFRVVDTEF
Mast/stem cell growth factor receptor Kit (Homo sapiens), sequence (P10721 whole entry, the tested form may be a part): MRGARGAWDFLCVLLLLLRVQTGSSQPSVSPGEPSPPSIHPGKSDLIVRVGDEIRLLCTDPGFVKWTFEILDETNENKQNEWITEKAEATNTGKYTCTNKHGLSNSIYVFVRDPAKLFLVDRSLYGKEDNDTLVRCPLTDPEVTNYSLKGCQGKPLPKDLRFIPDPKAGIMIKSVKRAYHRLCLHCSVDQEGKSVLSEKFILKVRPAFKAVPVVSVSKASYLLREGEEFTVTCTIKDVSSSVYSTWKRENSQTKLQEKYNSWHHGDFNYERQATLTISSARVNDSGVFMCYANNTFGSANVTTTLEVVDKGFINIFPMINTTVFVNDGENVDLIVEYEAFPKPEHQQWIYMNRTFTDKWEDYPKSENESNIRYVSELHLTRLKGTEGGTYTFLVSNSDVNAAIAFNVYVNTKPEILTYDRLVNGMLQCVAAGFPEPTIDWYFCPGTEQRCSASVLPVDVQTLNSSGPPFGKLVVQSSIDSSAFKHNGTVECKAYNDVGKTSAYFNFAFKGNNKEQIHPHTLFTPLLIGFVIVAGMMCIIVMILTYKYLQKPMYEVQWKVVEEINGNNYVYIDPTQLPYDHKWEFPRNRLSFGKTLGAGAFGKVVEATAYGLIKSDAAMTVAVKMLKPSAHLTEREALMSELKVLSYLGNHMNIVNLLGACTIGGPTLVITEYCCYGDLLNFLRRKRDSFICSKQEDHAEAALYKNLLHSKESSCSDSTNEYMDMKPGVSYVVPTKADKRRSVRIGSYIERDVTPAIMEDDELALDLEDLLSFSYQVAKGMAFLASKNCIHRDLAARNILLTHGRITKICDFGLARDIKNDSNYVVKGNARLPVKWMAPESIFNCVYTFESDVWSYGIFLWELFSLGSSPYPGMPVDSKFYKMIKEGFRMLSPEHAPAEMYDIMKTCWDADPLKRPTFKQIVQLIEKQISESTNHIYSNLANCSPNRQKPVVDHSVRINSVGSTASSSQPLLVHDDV
Mitogen-activated protein kinase 1 (Homo sapiens), sequence (P28482 whole entry, the tested form may be a part): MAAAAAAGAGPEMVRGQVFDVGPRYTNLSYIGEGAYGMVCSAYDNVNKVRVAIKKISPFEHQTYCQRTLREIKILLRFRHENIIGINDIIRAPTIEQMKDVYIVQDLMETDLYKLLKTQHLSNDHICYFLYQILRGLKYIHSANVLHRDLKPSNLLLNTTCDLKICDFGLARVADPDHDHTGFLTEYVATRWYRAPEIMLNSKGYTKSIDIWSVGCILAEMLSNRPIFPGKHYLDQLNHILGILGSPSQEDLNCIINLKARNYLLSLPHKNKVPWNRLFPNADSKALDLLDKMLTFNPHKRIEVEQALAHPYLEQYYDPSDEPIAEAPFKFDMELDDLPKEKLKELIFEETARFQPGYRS

## CC(C)N1C(=O)C(NCCCN(C)C)=C(c2cn(C)c3ccccc23)C1=O.Cl
[1]
  Activity: 93%
[2]
  Activity: 100%
[3]
  Activity: 97%
[4]
  Activity: 100%
[5]
  Activity: 96%
[6]
  Activity: 97%
[7]
  Activity: 85%
[8]
  Activity: 100%
[9]
  Activity: 95%
[10]
  Activity: 88%
[11]
  Activity: 100%
[12]
  Activity: 100%
[13]
  Activity: 99%
[14]
  Activity: 100%
[15]
  Activity: 96%
[16]
  Activity: 100%
[17]
  Activity: 100%
[18]
  Activity: 100%
[19]
  Activity: 92%
[20]
  Activity: 91%
[21]
  Activity: 96%
[22]
  Activity: 100%
[23]
  Activity: 80%
[24]
  Activity: 98%
[25]
  Activity: 84%
